Tested on: F2N1 Male Mice
Test: Metrazol Test (seizure susceptibility, tail vein infusion)
Format: in vivo, mouse
Settings: for dose at death, Average ± Stdev / dose at first twitch, Average ± Stdev / dose at tonic extension, Average ± Stdev / dose at tonic/clonic seizure, Average ± Stdev: 5 mg/mL Metrazol infused through tail vein at 0.375 mL/min
Procedure: A metrazol administration test can be used to screen animals for varying susceptibilities to seizures or similar events. For example, a 5 mg/ml solution of metrazol can be infused through the tail vein of a mouse at a rate of, e.g., approximately 0.375 ml/min. The infusion will cause all mice to experience seizures, followed by death. Those mice that enter the seizure stage the soonest are believed to be more prone to seizures.
To screen for phenotypes involving changes in seizure susceptibility, the Metrazol Test was used. A 5 mg/mL solution of Metrazol was infused through the tail vein of the mouse at a constant rate of 0.375 mL/min. The infusion causes all mice to experience seizures. Those mice who enter the seizure stage the quickest are thought to be more prone to seizures in general.
To screen for phenotypes involving epilepsy, the Metrazol was used. Seven to ten adult wild-type and homozygote males were used. A fresh solution of 5 mg/ml pentylenetetrazole in 0.9% NaCl was prepared prior to testing. Mice were weighed and loosely held in a restrainer. After exposure to a heat lamp to dilate the tail vein, mice were continuously infused with the pentylenetetrazole solution using a syringe pump set at a constant flow rate. The following stages were recorded: first twitch (sometimes accompanied by a squeak), beginning of the tonic/clonic seizure, tonic extension and survival time. The dose required for each phase is determined and the latency to each phase was determined between genotypes. Alterations in any stage may indicate an overall imbalance in excitatory or inhibitory neurotransmitter levels. When compared to age- and gender-matched wild-type (+/+) control mice, homozygous mutant (−/−) mice required a lower dose of metrazol to induce a tonic/clonic seizure (FIG. 5 and Table 1), indicating an increased susceptibility to seizure.

[1] = GRIK5 homozygous mutant (−/−) F2N1 male mice

## C1CCc2nnnn2CC1 [Metrazol, pentylenetetrazole]
[1]
  dose at death, Average ± Stdev: 136.12 ± 27.18 mg/kg
  dose at first twitch, Average ± Stdev: 26.38 ± 2.59 mg/kg
  dose at tonic extension, Average ± Stdev: 115.34 ± 28.63 mg/kg
  dose at tonic/clonic seizure, Average ± Stdev: 34.02 ± 6.24 mg/kg
Homozygous mutant (−/−) mice compared to age- and gender-matched wild-type (+/+) control mice
  dose of metrazol to induce a tonic/clonic seizure, in words: lower dose
wild-type (+/+) F2N1 male mice
  dose at death, Average ± Stdev: 134.29 ± 31.19 mg/kg
  dose at first twitch, Average ± Stdev: 29.73 ± 3.85 mg/kg
  dose at tonic extension, Average ± Stdev: 112.07 ± 29.70 mg/kg
  dose at tonic/clonic seizure, Average ± Stdev: 44.59 ± 9.74 mg/kg

— patent US20060265770A1, “Transgenic mice containing glutamate receptor (GRIK5) gene disruptions” (priority 2000, published 2006)
